The source of these data is BindingDB's records for doi:10.1074/jbc.M111.292243 (University of Copenhagen, 2012).

Common to all, as to assay: Radioligand Competition Assay
(Displacement assays read how much labelled ligand stays bound in the presence of the test substance.)

Test [1] concerns the target Neuronal acetylcholine receptor subunit alpha-7 (Rattus norvegicus, UniProt Q05941).
The target of test [2] is Neuronal acetylcholine receptor subunit alpha-4 (Rattus norvegicus, UniProt P09483).
For test [3], the target named is Acetylcholine-binding protein (Lymnaea stagnalis, UniProt P58154).
Sequence of Acetylcholine-binding protein (P58154 whole entry): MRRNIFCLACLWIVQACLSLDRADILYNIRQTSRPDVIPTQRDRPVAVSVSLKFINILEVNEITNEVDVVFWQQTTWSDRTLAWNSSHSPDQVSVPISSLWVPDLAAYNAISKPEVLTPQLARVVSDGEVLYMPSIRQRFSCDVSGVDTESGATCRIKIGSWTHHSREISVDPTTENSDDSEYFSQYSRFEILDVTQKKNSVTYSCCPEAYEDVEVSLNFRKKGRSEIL

Sequence of Neuronal acetylcholine receptor subunit alpha-4 (P09483 whole entry): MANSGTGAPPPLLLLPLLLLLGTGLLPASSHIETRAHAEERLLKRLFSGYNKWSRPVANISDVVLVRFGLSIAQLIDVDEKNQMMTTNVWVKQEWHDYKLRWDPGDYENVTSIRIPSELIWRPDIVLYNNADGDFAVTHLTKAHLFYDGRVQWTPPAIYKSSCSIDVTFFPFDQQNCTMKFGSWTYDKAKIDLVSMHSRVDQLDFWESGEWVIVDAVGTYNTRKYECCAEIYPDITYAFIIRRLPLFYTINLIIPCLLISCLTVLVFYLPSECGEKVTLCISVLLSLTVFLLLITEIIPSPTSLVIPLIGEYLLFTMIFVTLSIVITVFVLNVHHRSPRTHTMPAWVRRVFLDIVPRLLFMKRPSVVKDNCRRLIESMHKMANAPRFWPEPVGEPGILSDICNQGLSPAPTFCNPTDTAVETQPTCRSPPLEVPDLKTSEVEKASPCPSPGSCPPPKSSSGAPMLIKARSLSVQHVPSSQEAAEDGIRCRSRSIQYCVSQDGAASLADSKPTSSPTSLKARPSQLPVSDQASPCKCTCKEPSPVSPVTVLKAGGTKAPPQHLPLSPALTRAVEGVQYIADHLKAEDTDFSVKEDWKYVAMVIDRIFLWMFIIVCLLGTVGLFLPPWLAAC
Sequence of Neuronal acetylcholine receptor subunit alpha-7 (Q05941 whole entry): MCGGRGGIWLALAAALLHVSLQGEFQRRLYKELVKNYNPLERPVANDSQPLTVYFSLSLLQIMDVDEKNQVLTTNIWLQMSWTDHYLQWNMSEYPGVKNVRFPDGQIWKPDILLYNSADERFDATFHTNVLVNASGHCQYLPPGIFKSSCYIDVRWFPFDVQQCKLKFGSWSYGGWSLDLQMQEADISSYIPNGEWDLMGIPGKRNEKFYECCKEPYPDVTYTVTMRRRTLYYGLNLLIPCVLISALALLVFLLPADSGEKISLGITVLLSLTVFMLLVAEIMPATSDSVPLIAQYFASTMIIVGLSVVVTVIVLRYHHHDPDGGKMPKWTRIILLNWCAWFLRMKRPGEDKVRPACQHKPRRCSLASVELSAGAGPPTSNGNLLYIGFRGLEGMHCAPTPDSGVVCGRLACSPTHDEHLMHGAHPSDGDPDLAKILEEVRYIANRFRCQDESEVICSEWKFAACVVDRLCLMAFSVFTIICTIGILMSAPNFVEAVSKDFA

The Ki is a measure of affinity in units of concentration, obtained from inhibition or displacement. High values mean lower affinity, low ones higher affinity. In the case of `c1ccc(-c2cncc(N3CCCNCC3)c2)cc1`, the Ki in test [1] is greater than 10000 nM; in test [2] it was 0.8 nM.

For `c1cncc(N2CCCNCC2)c1`, the Ki in test [1] was determined as 136 nM; in test [2] it was 0.72 nM.

As for `CCOc1cc(N2CCCNCC2)cnc1Br`, the Ki in test [1] was 847 nM; in test [2], 0.25 nM.

`Clc1ccc([C@H]2C[C@@H]3CC[C@H]2N3)cn1` came in with a Ki in test [3] of 0.097 nM.

Take `O=c1cccc2n1CC1CNCC2C1` (stereo not given) [CAS_485-35-8]: the results for the Ki in test [1], in test [2] and in test [3] were 295 nM, 0.95 nM and 8.2 nM, respectively.

On to `CCOc1cncc(N2CCCNCC2)c1` [NS3573, 2], for which the values for the inhibition constant Ki in test [1], in test [2] and in test [3] were 9970 nM, 0.62 nM and 2.2 nM, respectively.

Consider `Brc1ccc(N2CCCNCC2)cn1` [NS3920, 4], for which the Ki amounted to 190 nM in test [1] and 0.32 nM in test [2].
